# Like-named read-outs stand apart in the source and are kept apart here.
# Test system: interior spruce somatic embryos
# Type: in vivo, Picea glauca (Moench) Voss x P. engelmannii Parry ex Engelm.
# Conditions: for % with hyperhydricity: in vivo
# Source text: The second study assessed the effects adding various osmotica to nutripriming solutions on subsequent germination and development performance. Mature somatic embryos of interior spruce (Picea glauca (Moench) Voss x P. engelmannii Parry ex Engelm.) genotype 23-2672 were desiccated with the HRHT treatment, and then divided into 10 groups of 160 somatic embryos per group. One group was not primed and served as the HRHT control treatment for this study. […] The nutripriming solutions and embryos were placed into 250-ml Kimax® baffled flasks. The nutripriming duration was 72 hrs at temperatures ranging between 20-23° C., and a 24-hr photoperiod of 30 μmol m^−2s^−1 photosynthetic photon flux.
# At the completion of the nutripriming step, the nutriprimed embryos from each treatment were divided into 8 groups of 20 embryos and sown by hand onto vermiculite media in Sigma polycarbonate boxes. The liquid media in these germination boxes were either 3% w/v sucrose m24GMD or m24GMD without sucrose. The experiment design was a random complete block design for each media type. Each nutripriming treatment had 4 replicates of 20 embryos in each germination media type. The germination boxes were placed in a germination room and grown for two weeks under 50-70 μmol m^−2s^−1 photosynthetic photon flux of 16-hour photoperiod at an air temperature of 23° C. The germinants were then harvested and assessed for germination rates, hyperhydricity rates, shoot and root length. Germination was defined as germinants having a root longer than 2 mm, and elongated hypercotyl. Hyperhydricity was defined by the thickening of hypercotyl and watery appearance of the germinants, whether germinated or not germinated.
# [1] = germination media m24GMD (without sucrose), osmoticant levels as E220
# [2] = germination media m24GMD plus 3% sucrose, osmoticant in m24GMD priming solution (w/v): 1% betaine, 1.65% fructose, glucose, mannitol, sorbitol, 3% lactose, maltose, sucrose, 10% PEG 4000, 72 hrs
# [3] = germination media m24GMD plus 3% sucrose, osmoticant levels as E220
Compound,Germination % [1] [%],Root length [1] [mm],Shoot length [1] [mm],Germination % [2] [%],Root length [3] [mm],Shoot length [3] [mm],% with hyperhydricity [%]
OC[C@H]1O[C@H](O[C@H]2[C@H](O)[C@@H](O)[C@H](O)O[C@@H]2CO)[C@H](O)[C@@H](O)[C@@H]1O [maltose],0,0.8 ± 0.1,11.2 ± 0.3,98.8,11.5 ± 0.8,14.2 ± 0.3,100
OC[C@@H](O)[C@@H](O)[C@H](O)[C@H](O)CO [mannitol],24.6 ± 12.7,0.3 ± 0.1,10.0 ± 0.3,100,12.0 ± 0.5,13.6 ± 0.3,93.5 ± 5.0
OC[C@@H](O)[C@@H](O)[C@H](O)[C@@H](O)CO [sorbitol],5.0 ± 5.0,0.4 ± 0.1,10.7 ± 0.3,100,15.5 ± 1.0,14.5 ± 0.4,92.6 ± 6.0
polyethylene glycol (PEG) 4000 [PEG 4000],,,,,,,97.5 ± 4.3

# From patent US6689609B1, “Enhancing germination of plant somatic embryos by priming” (Cellfor Inc., priority 1999, dated 2004)
